Experiments:
[1] = molecular target: Kappa-type opioid receptor (Rattus norvegicus, UniProt P34975)
[2] = molecular target: Delta-type opioid receptor (Mus musculus, UniProt P32300)
Mu-type opioid receptor = Mu-type opioid receptor (Rattus norvegicus, UniProt P33535)
Chain of Mu-type opioid receptor (P33535 whole entry): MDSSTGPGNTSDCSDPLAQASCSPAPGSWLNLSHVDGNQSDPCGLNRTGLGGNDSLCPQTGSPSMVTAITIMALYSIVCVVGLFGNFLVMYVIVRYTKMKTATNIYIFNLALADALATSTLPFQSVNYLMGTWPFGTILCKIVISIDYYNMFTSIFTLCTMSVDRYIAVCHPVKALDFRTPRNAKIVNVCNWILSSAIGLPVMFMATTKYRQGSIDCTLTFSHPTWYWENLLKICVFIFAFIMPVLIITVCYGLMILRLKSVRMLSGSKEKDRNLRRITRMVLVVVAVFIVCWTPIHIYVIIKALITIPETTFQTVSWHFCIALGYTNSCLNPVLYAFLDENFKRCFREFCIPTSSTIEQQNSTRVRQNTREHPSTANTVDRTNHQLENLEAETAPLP

Chain of Kappa-type opioid receptor (P34975 whole entry): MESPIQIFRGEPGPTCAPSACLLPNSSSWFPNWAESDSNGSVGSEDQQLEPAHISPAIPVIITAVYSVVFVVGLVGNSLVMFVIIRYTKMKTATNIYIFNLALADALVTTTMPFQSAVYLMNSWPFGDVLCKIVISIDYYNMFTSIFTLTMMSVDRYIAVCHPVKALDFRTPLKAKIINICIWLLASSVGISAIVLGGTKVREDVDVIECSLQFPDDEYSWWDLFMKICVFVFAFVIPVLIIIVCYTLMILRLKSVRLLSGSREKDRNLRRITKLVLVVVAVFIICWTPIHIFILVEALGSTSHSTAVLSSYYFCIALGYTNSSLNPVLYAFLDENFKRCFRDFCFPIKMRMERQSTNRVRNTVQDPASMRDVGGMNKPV
Chain of Delta-type opioid receptor (P32300 whole entry): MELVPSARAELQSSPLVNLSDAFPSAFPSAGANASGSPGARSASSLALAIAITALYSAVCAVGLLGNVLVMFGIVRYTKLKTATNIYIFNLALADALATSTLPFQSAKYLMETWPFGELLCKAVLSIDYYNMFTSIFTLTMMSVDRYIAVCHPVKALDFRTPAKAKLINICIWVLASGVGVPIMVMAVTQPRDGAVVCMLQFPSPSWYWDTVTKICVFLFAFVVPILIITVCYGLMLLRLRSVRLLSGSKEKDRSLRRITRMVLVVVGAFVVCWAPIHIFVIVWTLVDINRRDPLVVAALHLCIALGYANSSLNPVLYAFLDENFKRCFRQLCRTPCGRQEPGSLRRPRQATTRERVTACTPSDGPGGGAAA

Row | SMILES | Ki [1] [nM] | Ki [2] [µM] | Ki (Mu-type opioid receptor) [nM]
1 | CC(C)C[C@H](NC(=O)[C@H](Cc1ccccc1)NC(=O)CNC(=O)CNC(=O)[C@@H](N)Cc1ccc(O)cc1)C(=O)N[C@@H](CCCN=C(N)N)C(=O)N[C@@H](CCCN=C(N)N)C(=O)N[C@H](C)C(=O)N[C@@H](CCCN=C(N)N)C(=O)N1CCC[C@H]1C(=O)N[C@@H](CCCCN)C(N)=O [[D-Ala8]Dyn A-(1-11)NH2] | 9.53 | – | –
2 | CC(C)C[C@H](NC(=O)[C@@H](Cc1ccccc1)NC(=O)CNC(=O)CNC(=O)[C@@H](N)Cc1ccc(O)cc1)C(=O)N[C@@H](CCCN=C(N)N)C(=O)N[C@@H](CCCN=C(N)N)C(=O)N[C@H](C)C(=O)N[C@@H](CCCN=C(N)N)C(=O)N1CCC[C@H]1C(=O)N[C@@H](CCCCN)C(N)=O [[D-Phe4, D-Ala8]Dyn A-(1-11)NH2] | – | > 10 | 88.2
